Measurements reported in publication PMC12511557, “WEE1 inhibitors synergise with mRNA translation defects via activation of the kinase GCN2” (Nature Communications, 2025).

Target: T1, GCN2 (Homo sapiens, UniProt Q9P2K8)
T1 construct: gene EIF2AK4; recombinant human GCN2, N-terminal twin StrepII tag, expressed in Sf9 cells
Experiment: ADP-Glo kinase assay with purified GCN2 (biphasic: activation EC50 […], inhibition IC50 […]); supported by thermal unfolding (-2.[…] °C shift) and in vitro autophosphorylation
Assay type: biochemical

T1 sequence (Q9P2K8 whole entry): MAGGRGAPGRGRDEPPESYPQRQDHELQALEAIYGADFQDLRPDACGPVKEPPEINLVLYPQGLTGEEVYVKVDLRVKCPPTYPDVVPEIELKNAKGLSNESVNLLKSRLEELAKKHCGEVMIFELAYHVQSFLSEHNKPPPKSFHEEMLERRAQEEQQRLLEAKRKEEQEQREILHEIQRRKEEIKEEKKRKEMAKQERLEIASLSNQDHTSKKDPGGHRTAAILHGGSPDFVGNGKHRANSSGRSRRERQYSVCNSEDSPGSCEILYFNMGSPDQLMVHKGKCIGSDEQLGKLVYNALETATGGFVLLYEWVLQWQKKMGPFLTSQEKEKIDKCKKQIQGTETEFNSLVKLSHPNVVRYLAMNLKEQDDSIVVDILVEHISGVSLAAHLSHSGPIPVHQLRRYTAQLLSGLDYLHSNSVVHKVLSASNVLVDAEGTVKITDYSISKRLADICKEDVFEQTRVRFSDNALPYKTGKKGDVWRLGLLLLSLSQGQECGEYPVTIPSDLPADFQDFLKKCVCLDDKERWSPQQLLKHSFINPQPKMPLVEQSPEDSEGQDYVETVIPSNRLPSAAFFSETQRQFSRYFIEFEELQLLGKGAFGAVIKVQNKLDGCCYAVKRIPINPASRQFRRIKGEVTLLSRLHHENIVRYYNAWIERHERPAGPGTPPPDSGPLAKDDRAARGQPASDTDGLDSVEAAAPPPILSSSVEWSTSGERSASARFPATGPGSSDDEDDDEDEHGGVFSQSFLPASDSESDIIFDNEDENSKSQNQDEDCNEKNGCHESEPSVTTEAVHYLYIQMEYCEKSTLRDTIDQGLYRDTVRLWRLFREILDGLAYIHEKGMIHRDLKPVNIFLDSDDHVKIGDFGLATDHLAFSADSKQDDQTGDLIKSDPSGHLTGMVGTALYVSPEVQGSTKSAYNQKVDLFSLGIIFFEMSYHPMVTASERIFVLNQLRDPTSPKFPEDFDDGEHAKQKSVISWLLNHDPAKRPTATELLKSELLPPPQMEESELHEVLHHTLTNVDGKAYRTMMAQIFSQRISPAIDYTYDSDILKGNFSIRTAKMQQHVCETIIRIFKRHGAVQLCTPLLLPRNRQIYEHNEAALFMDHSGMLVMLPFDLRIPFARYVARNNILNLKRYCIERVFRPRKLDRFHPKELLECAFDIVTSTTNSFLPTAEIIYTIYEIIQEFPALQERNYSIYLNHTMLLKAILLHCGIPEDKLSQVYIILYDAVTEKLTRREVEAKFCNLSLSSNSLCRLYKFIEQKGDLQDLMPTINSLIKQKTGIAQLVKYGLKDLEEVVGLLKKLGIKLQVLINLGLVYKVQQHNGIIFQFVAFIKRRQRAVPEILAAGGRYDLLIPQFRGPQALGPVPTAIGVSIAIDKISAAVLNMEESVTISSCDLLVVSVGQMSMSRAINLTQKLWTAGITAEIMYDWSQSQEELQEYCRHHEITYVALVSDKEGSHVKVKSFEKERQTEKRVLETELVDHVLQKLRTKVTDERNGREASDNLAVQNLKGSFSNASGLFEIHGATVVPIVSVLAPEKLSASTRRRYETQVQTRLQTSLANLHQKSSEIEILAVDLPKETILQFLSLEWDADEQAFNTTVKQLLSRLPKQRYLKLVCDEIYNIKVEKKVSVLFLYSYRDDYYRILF

EC50: 16 nM
SMILES: C=CCn1c(=O)c2cnc(Nc3ccc(N4CCN(C)CC4)cc3)nc2n1-c1cccc(C(C)(C)O)n1 [AZD1775]
